Measured values published in patent US6964870B2, “Enhanced selection of genetically modified pine embryogenic tissue” (MeadWestvaco Corporation, priority 2000, dated 2005).

Experiments:
Format in all cases: cell-based
[1] = test system: embryogenic lines of crosses with P. taeda selection 7-56; assay: Recovery of transformants from elite crosses with ABA in selection media (Agrobacterium and bombardment experiments)
[2] = test system: precotyledonary embryos of loblolly pine or hybrid cell lines; assay: Bombardment of precotyledonary embryos on preparation medium with high ABA (Example 3); conditions: preparation medium for bombardment with 125 mg/L ABA; lines of cross 7-56×9-6 and others incl. interspecific hybrids
Experimental: For transformation in this example, the tissue was bombarded using conditions described in Example 1 except that the tissue had been plated on MSG2 medium containing 125 mg/L ABA and 70 g/L PEG 3-8 weeks previously, instead of on medium DCR3 one day previously, so that the experimental treatment consisted of precotyledonary embryos at various stages of development. Following DNA transfer, visible pre-stage 3 embryos were dissected from the bombarded tissues and placed individually onto DCR2 as described above for secondary proliferation.
Following a period of one to 14 days, when a preponderance of pre-stage 3 embryos dissected from the bombarded tissue could be seen to be beginning to proliferate secondary embryogenic cell masses, samples to be assayed for transformation were transferred to a selection medium identical to DCR2 except that it contained […] to initiate secondary embryogenesis. Samples of isolated pre-stage 3 embryos from each line and the secondary tissue proliferating from them were also cultured on DCR2 maintenance media without selection agent to observe any effect of the bombardment treatment on proliferation. These cultures were transferred to fresh maintenance media every three weeks. Proliferation of these non-selected controls at nine weeks after dissection is recorded in Table 4. […]

[3] = test system: loblolly pine cell lines or hybrid cell lines; assay: ABA in culture media during and after co-cultivation with Agrobacterium, all lines (Example 4)
From the text: Seven loblolly pine cell lines or hybrid cell lines from seven widely diverse genetic backgrounds were used in this experiment. To prepare for gene transfer using Agrobacterium, fabric supports were sterilized by autoclaving and placed in a sterile Buchner funnel, and one to five milliliters of embryogenic suspension was pipetted onto each support such that the embryogenic tissue was evenly distributed over its surface. Following this the liquid medium was suctioned from the tissues and each support bearing the embryogenic tissue was placed on gelled medium for inoculation by Agrobacterium. In this case the medium used was the same as the preparation medium described in Example 1 above, except that the medium, used here for preparation and co-cultivation of the cells, contained ABA at 0, 10, or 30 mg/L as an experimental condition. Genes were then introduced into the plant material by co-cultivation with Agrobacterium(Wenck et al. 1999). Specifically, gene constructs containing a reporter gene and a selectable marker were introduced into Agrobacterium tumefaciens strain EHA105 with the virulence-enhancing plasmid pTOK47 (Wenck et al. 1999), by techniques well known to those skilled in the art, and virulence was then induced with administration of acetosyringone by commonly used techniques, well known to those skilled in the art, whereupon the induced Agrobacterium was dripped over the plant material and these were co-cultivated in the dark at 23°±2° C. for approximately 24-72 hours. Those skilled in the art recognize that many different gene constructs, plasmids, strains, media, and co-cultivation times and protocols would be suitable for use in the present method.
Supports bearing approximately 0.1 g of embryogenic tissue were divided onto recovery media (having the same formulation as the maintenance medium except for the addition of 400 mg/L TIMENTIN® antibiotic) either containing or lacking ABA. […] Concentrations of ABA used in all these media were 0, 10, and 30 mg/l.
Cells were maintained on the selection media, with transfer of the polyester support membranes to fresh selection media of the same composition, every two weeks for a total of eight weeks of selection. Cells from actively growing sublines from selection were examined using stereomicroscopes for the expression of the visual marker gene uidA at the conclusion of the selection period. All of the sublines capable of active growth on selection medium were seen to express levels of the visual marker gene product that enabled them to be readily distinguished from non-selected cells. This continuing expression of the transgenes after at least twelve weeks following bombardment confirmed the integration of the transgenes in these sublines. […]

CC1=CC(=O)CC(C)(C)[C@@]1(O)/C=C/C(C)=C\C(=O)O [ABA, abscisic acid] was tested, and the “lines attempted from which transformants recovered” value ([1]; cross 7-56×9-6, ABA in the selection media) was “more than 80%”, the “lines attempted from which transformants recovered” value ([1]; crosses with elite P. taeda selection 7-56 as a parent, ABA in selection media, media containing 5-30 mg/L ABA) was “more than 80%” and the frequency of transformants [2] was “surprisingly high frequency of transformants”. For the same molecule, the “necrotic foci in somatic embryogenic masses” value ([3]; 10 or 30 mg/L ABA during and after co-cultivation with Agrobacterium vs media without ABA, all lines) was “fewer necrotic foci”, the “effect on observation of transformants” value ([3]; 10 or 30 mg/l ABA in the preparation medium) was “neutral or beneficial” and the “doubling of somatic embryogenic masses” value ([3]; ABA in recovery medium after co-cultivation with Agrobacterium vs no ABA, certain P. taeda lines and hybrids) was “able to double more rapidly”. The “effect on observation of transformants” value ([3]; ABA in the recovery medium) was “similarly neutral or beneficial”.
